Key:
Assay type in all cases: in vivo
Avena fatua (AVEFA) [1] = assay: Herbicidal pre-emergence action; details: graded after ca. 3 weeks
From the text: (§1) Seeds of mono- and dicotyledonous weed plants and crop plants were sown, in plastic or organic planting pots, in sandy loam and covered with soil. The compounds according to the invention, formulated in the form of wettable powders (WP) or as emulsifiable concentrates (EC), were applied to the surface of the covering soil as aqueous suspension or emulsion, with the addition of 0.5% of an additive, at an application rate of 600 1 of water/ha (converted).
(§2) Following treatment, the pots were placed in a greenhouse and kept under optimum growth conditions for the test plants. The visual grading of the damage to the test plants was carried out after ca. 3 weeks in comparison to untreated controls (herbicidal effect in percent (%): 100% effect=plants have died off, 0% effect=as control plants).
(§3) Tables A1 to A16, below, show the effects of selected compounds of the general formula (I) according to table 1 on various harmful plants and an application rate corresponding to 1280 g/ha or lower obtained by the experimental procedure mentioned above.

[2] = system: Echinochloa crus-galli (ECHCG); assay: Herbicidal pre-emergence action; details: 1280 g/ha, graded after ca. 3 weeks
From the text: as §1, §2, §3

[3] = system: Alopecurus myosuroides (ALOMY); assay: Herbicidal post-emergence action; details: 1280 g/ha, assessed after ca. 3 weeks
From the text: (§4) Seeds of mono- and dicotyledonous weed plants and crop plants were sown, in plastic or organic planting pots, in sandy loam, covered with soil and grown in a greenhouse under controlled growth conditions. 2 to 3 weeks after sowing, the test plants were sprayed in the single-leaf stage. The compounds according to the invention, formulated in form of wettable powders (WP) or as emulsifiable concentrates (EC), were sprayed onto the green plant parts as aqueous suspension or emulsion, with the addition of 0.5% of an additive, at an application rate of 600 1 of water/ha (converted). The test plants were placed in the greenhouse for ca. 3 weeks under optimum growth conditions, and then the effect of the preparations was assessed visually in comparison with untreated controls (herbicidal effect in percent (%): 100% effect=plants have died off, 0% effect=as control plants).
(§5) Tables B1 to B16 below show the effects of selected compounds of the general formula (I) according to table 1 on various harmful plants and an application rate corresponding to 1280 g/ha or 320 g/ha obtained by the experimental procedure mentioned above.

[4] = system: Lolium multiflorum (LOLMU); assay: Herbicidal post-emergence action; details: 1280 g/ha, assessed after ca. 3 weeks
From the text: as §4, §5

Setaria viridis (SETVI) [5] = assay: Herbicidal post-emergence action; details: 1280 g/ha, assessed after ca. 3 weeks
From the text: as §4, §5

[6] = system: Alopecurus myosuroides (ALOMY); assay: Herbicidal pre-emergence action; details: 1280 g/ha, graded after ca. 3 weeks
From the text: as §1, §2, §3

Avena fatua (AVEFA) [7] = assay: Herbicidal post-emergence action; details: 1280 g/ha, assessed after ca. 3 weeks
From the text: as §4, §5

[8] = system: Echinochloa crus-galli (ECHCG); assay: Herbicidal post-emergence action; details: 1280 g/ha, assessed after ca. 3 weeks
From the text: as §4, §5

[9] = system: Lolium multiflorum (LOLMU); assay: Herbicidal pre-emergence action; details: 1280 g/ha, graded after ca. 3 weeks
From the text: as §1, §2, §3

[10] = system: Polygonum convolvulus (POLCO); assay: Herbicidal pre-emergence action; details: graded after ca. 3 weeks
From the text: as §1, §2, §3

Setaria viridis (SETVI) [11] = assay: Herbicidal pre-emergence action; details: 1280 g/ha, graded after ca. 3 weeks
From the text: as §1, §2, §3

SMILES | Pre-emergence activity against AVEFA (Avena fatua (AVEFA) [1]; 1280 g/ha) [%] | Post-emergence activity against ALOMY [3] [%] | Pre-emergence activity against ALOMY [6] [%] | Post-emergence activity against AVEFA (Avena fatua (AVEFA) [7]) [%] | Post-emergence activity against ECHCG [8] [%] | also measured
CC(C)CC(NC(=O)CC1CCC(=O)N1Cc1cccc(F)c1F)C(=O)O (mixture of isomers) [Example I-045] | 90 | 80 | – | – | – | Pre-emergence activity against ECHCG [2]: 80%; Post-emergence activity against LOLMU [4]: 80%; Post-emergence activity against SETVI (Setaria viridis (SETVI) [5]): 80%
O=C(CC1CCC(=O)N1Cc1cccc(F)c1F)NC(Cc1c[nH]c2ccccc12)C(=O)O (mixture of isomers) [Example I-068] | 80 | – | 80 | – | – | –
CSCCOC(=O)CC1CCC(=O)N1Cc1cccc(F)c1F (racemic) [Example I-010] | 100 | 80 | 80 | 90 | 100 | Post-emergence activity against LOLMU [4]: 90%; Post-emergence activity against SETVI (Setaria viridis (SETVI) [5]): 90%
CC(C)OC(=O)CC1CCC(=O)N1Cc1cccc(F)c1F (racemic) [Example I-025] | 100 | 80 | 90 | 80 | 90 | Pre-emergence activity against ECHCG [2]: 90%; Pre-emergence activity against LOLMU [9]: 90%; Pre-emergence activity against POLCO ([10]; 1280 g/ha): 80%; Pre-emergence activity against SETVI (Setaria viridis (SETVI) [11]): 80%; Post-emergence activity against LOLMU [4]: 80%
O=C(CC1CCC(=O)N1Cc1cccc(F)c1F)OCC[S+]([O-])c1ccc(Cl)cc1 (racemic) [Example I-029] | 100 | 80 | 80 | 90 | 90 | Pre-emergence activity against ECHCG [2]: 90%; Pre-emergence activity against LOLMU [9]: 80%; Pre-emergence activity against SETVI (Setaria viridis (SETVI) [11]): 80%; Post-emergence activity against LOLMU [4]: 80%
O=C(CC1CCC(=O)N1Cc1cccc(F)c1F)OCCSc1ccc(Cl)cc1 (racemic) [Example I-038] | – | 80 | – | – | 90 | Post-emergence activity against LOLMU [4]: 80%; Post-emergence activity against SETVI (Setaria viridis (SETVI) [5]): 80%
O=C(CC1CCC(=O)N1Cc1cccc(F)c1F)NCCO (racemic) [Example I-049] | 100 | 80 | 90 | – | – | Pre-emergence activity against ECHCG [2]: 80%; Pre-emergence activity against LOLMU [9]: 80%; Pre-emergence activity against POLCO ([10]; 1280 g/ha): 90%
O=C(CC1CCC(=O)N1Cc1cccc(F)c1F)NS(=O)(=O)C(F)(F)F (racemic) [Example I-052] | 90 | – | – | – | 80 | Post-emergence activity against LOLMU [4]: 80%
COC(=O)CN(C)C(=O)CC1CCC(=O)N1Cc1cccc(F)c1F (racemic) [Example I-053] | 90 | 80 | 90 | 80 | 80 | –
CN(C)NC(=O)CC1CCC(=O)N1Cc1cccc(F)c1F (racemic) [Example I-058] | 100 | 80 | 90 | 80 | 80 | Pre-emergence activity against LOLMU [9]: 80%
C=CCNC(=O)CC1CCC(=O)N1Cc1cccc(F)c1F (racemic) [Example I-059] | 80 | – | 80 | 80 | 80 | –
O=C(CC1CCC(=O)N1Cc1cccc(F)c1F)NCCc1ccccc1 (racemic) [Example I-061] | 90 | 90 | 80 | 90 | 80 | –
CS(=O)(=O)NC(=O)CC1CCC(=O)N1Cc1cccc(Cl)c1F (racemic) [Example I-070] | – | – | – | 80 | 80 | –
CCS(=O)(=O)NC(=O)CC1CCC(=O)N1Cc1cccc(F)c1F (racemic) [Example I-072] | 80 | – | – | 80 | 80 | –
O=C(CC1CCC(=O)N1Cc1cccc(F)c1F)NS(=O)(=O)C(F)F (racemic) [Example I-074] | – | – | – | – | 80 | –
CC(C)S(=O)(=O)NC(=O)CC1CCC(=O)N1Cc1cccc(F)c1F (racemic) [Example I-076] | 80 | – | – | 80 | – | –
O=C(CC1CCC(=O)N1Cc1cccc(F)c1F)NCc1cccc2ncccc12 (racemic) [Example I-079] | – | – | – | 90 | – | –
COC(=O)CCNC(=O)CC1CCC(=O)N1Cc1cccc(F)c1F (racemic) [Example I-084] | – | – | 80 | – | – | –
CCn1ccc(CNC(=O)CC2CCC(=O)N2Cc2cccc(F)c2F)n1 (racemic) [Example I-085] | – | – | – | 90 | – | –
O=C(CC1CCC(=O)N1Cc1cccc(F)c1F)NS(=O)(=O)C1CC1 (racemic) [Example I-086] | – | – | – | – | 80 | –
COCCNC(=O)CC1CCC(=O)N1Cc1cccc(F)c1F (racemic) [Example I-091] | – | – | 90 | – | – | –
C#CCNC(=O)CC1CCC(=O)N1Cc1cccc(F)c1F (racemic) [Example I-092] | 80 | – | – | – | – | –
CCNC(=O)CC1CCC(=O)N1Cc1cccc(F)c1F (racemic) [Example I-098] | – | – | – | 80 | – | –
CN(C(=O)CC1CCC(=O)N1Cc1cccc(F)c1F)c1ccccc1 (racemic) [Example I-100] | – | – | 90 | – | – | –
CNC(=O)CC1CCC(=O)N1Cc1cccc(F)c1F (racemic) [Example I-104] | – | – | – | – | – | Pre-emergence activity against POLCO ([10]; 1280 g/ha): 90%
CC1(C)OC(=O)C(C(=O)CC2CCC(=O)N2Cc2cccc(F)c2F)C(=O)O1 (racemic) [Example I-186] | – | – | – | – | 80 | Pre-emergence activity against POLCO ([10]; 1280 g/ha): 100%
O=C(CC1CCC(=O)N1Cc1cccc(F)c1F)NN1CCCCC1 (racemic) [Example I-203] | – | – | – | – | – | Pre-emergence activity against AVEFA (Avena fatua (AVEFA) [1]; 320 g/ha): 100%; Pre-emergence activity against POLCO ([10]; 320 g/ha): 80%
CC[C@H](C)[C@H](NC(=O)CC1CCC(=O)N1Cc1cccc(F)c1F)C(=O)O (single isomer, unassigned) [Example I-011] | 90 | – | 80 | 90 | 80 | Pre-emergence activity against LOLMU [9]: 80%; Post-emergence activity against LOLMU [4]: 90%
COC(=O)[C@H](Cc1c[nH]cn1)NC(=O)CC1CCC(=O)N1Cc1cccc(F)c1F (single isomer, unassigned) [Example I-050] | – | – | – | – | 80 | –
O=C(O)CC1CCC(=O)N1Cc1c(F)ccc(F)c1F (centres unmarked) [Example I-191, [5-Oxo-1-(2,3,6-trifluorobenzyl)pyrrolidin-2-yl]acetic acid] | – | – | – | – | – | Pre-emergence activity against AVEFA (Avena fatua (AVEFA) [1]; 320 g/ha): 100%

Source: patent US20240199542A1, “SUBSTITUTED PYRROLIDIN-2-ONES, SALTS THEREOF AND THEIR USE AS HERBICIDALLY ACTIVE SUBSTANCES” (Bayer Aktiengesellschaft, priority 2021, published 2024)
